Our source for the Kd and GI50 values is US20260062422A1 (Halda Therapeutics OpCo, Inc., priority 2022, published 2026).

A word on the Kd: it is a measure of binding affinity in units of concentration. Lower therefore signals a tighter complex. The term GI50 denotes the concentration that inhibits growth by half. Lower therefore signals greater sensitivity of the cells.

In one assay the target is T1, androgen receptor (Homo sapiens, UniProt P10275).
T1 sequence (P10275 1-920 T878A): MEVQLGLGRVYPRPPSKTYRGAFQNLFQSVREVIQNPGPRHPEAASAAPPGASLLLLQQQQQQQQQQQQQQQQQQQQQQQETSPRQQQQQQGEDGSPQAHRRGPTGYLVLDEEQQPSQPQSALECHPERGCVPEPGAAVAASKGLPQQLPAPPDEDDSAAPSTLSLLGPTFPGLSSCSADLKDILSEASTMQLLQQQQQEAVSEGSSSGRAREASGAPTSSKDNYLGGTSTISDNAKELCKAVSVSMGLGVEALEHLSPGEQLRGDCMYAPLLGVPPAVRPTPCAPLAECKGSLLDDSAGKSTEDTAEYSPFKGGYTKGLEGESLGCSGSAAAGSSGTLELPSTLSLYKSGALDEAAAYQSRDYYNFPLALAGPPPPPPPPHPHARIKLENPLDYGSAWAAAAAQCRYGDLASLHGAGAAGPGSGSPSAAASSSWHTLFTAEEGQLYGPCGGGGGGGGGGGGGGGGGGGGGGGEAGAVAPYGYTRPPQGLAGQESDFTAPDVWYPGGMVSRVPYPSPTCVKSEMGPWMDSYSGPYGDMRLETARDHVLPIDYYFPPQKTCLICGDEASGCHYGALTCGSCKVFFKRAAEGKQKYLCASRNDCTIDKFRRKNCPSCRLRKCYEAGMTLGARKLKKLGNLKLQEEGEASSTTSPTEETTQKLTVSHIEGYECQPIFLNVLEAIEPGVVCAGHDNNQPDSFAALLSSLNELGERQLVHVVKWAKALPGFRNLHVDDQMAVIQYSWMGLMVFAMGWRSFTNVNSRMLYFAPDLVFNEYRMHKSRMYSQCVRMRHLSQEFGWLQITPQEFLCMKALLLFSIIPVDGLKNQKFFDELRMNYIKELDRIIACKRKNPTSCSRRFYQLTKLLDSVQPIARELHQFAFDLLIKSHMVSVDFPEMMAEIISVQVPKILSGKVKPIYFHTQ
In words: Assay for binding affinity to androgen receptor ([3H]methyltrienolone radioligand, cell cytosol). The following applies: 1 nM [3H]methyltrienolone, 24 hours at 4° C., Table 5. On the procedure:
Fractions of cell cytosol ([…] cell/point) were incubated for 24 hours at 4° C. with 1 nM [^3H]methyltrienolone in the absence or presence of the test compound in a buffer containing 25 mM Hepes-Tris (pH 7.4), 1 mM EDTA, 10 mM Na2MoO4, 2 mM DTT, 5 μM triamcinolone acetonide, and 10% glycerol. Nonspecific binding was determined in the presence of 1 μM testosterone. Following incubation, the samples were filtered rapidly under vacuum through glass fiber filters (GF/B, Packard) presoaked with 0.3% PEI and rinsed several times with ice-cold 50 mM Tris-HCl using a 96-sample cell harvester (Unifilter, Packard). The filters were dried then counted for radioactivity in a scintillation counter (Topcount, Packard) using a scintillation cocktail (Microscint 0, Packard). The results are expressed as a percent inhibition of the control radioligand specific binding. The standard reference compound is testosterone, which is tested in each experiment at several concentrations to obtain a competition curve from which its IC50 is calculated.

The target of the next assay is T2, BRD4-BD1 (Homo sapiens, UniProt O60885).
T2 construct: made in house; host or cells: T7 phage grown in an E. coli host derived from BL21
Description: bromoKdELECT assay for binding affinity to BRD4-BD1. To be noted: Table 6. On the procedure: (§1) Compounds were tested using a bromoKdELECT assay. T7 phage strains displaying bromodomains were grown in parallel in 24-well blocks in an E. coli host derived from the BL21 strain. E. coli were grown to log-phase and infected with T7 phage from a frozen stock (multiplicity of infection=0.4) and incubated with shaking at 32° C. until lysis (90-150 minutes). The lysates were centrifuged (5,000×g) and filtered (0.2 μm) to remove cell debris. Streptavidin-coated magnetic beads were treated with biotinylated small molecule or acetylated peptide ligands for 30 minutes at room temperature to generate affinity resins for bromodomain assays. The liganded beads were blocked with excess biotin and washed with blocking buffer (SeaBlock (Pierce), 1% BSA, 0.05% Tween 20, 1 mM DTT) to remove unbound ligand and to reduce nonspecific phage binding. Binding reactions were assembled by combining bromodomains, liganded affinity beads, and test compounds in 1× binding buffer (17% SeaBlock, 0.33×PBS, 0.04% Tween 20, 0.02% BSA, 0.004% Sodium azide, 7.4 mM DTT). Test compounds were prepared as 1000× stocks in 100% DMSO. Kds were determined using an 11-point 3-fold compound dilution series with one DMSO control point. All compounds for Kd measurements are distributed by acoustic transfer (non-contact dispensing) in 100% DMSO. The compounds were then diluted directly into the assays such that the final concentration of DMSO was 0.09%. All reactions performed in polypropylene 384-well plates. Each was a final volume of 0.02 ml. The assay plates were incubated at room temperature with shaking for 1 hour and the affinity beads were washed with wash buffer (1×PBS, 0.05% Tween 20). The beads were then resuspended in elution buffer (1×PBS, 0.05% Tween 20, 2 M non-biotinylated affinity ligand) and incubated at room temperature with shaking for 30 minutes. The bromodomain concentration in the eluates was measured by qPCR.

Assay [1] relates to T-Rex 293 cell line SC3 cells lacking increased expression of androgen receptor protein. Description: Cellular growth inhibition, T-Rex 293 SC3 cells without doxycycline, CellTiter-Glo. The following applies: 72 h, T-Rex 293 SC3 cells not exposed to doxycycline, CellTiter-Glo 2.0. The assay is classed as cell-based. An outline of the steps:
(§2)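 SC3 is a T-Rex 293 clone stably transfected with wild-type androgen receptor in pcDNA4/TO, inducible by 10 ng/mL doxycycline. Cells were grown in phenol red-free DMEM with 10% charcoal-dextran FBS, with or without doxycycline, dosed 24 h after seeding (0.5% DMSO) for 72 h. Viability was read by CellTiter-Glo 2.0 luminescence and GI50 obtained from four-parameter fits.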
In general terms: Cellular ATP, detected with luciferase, serves as a proxy for viable cell number.

Assay [2] concerns T-Rex 293 cell line SC3 cells having increased expression of androgen receptor protein due to exposure to doxycycline. Description: Cellular growth inhibition, T-Rex 293 SC3 cells with doxycycline (androgen receptor induced), CellTiter-Glo. The assay is classed as cell-based. To be noted: 72 h, T-Rex 293 SC3 cells with 10 ng/mL doxycycline (increased androgen receptor expression). An outline of the steps: as §2

In a further assay the target is T3, BRD4-BD2 (Homo sapiens, UniProt O60885).
T3 construct: made in house; host or cells: T7 phage grown in an E. coli host derived from BL21
Description: bromoKdELECT assay for binding affinity to BRD4-BD2. The following applies: Table 7. On the procedure:
as §1, with “2 μM” for “2 M”

Another assay has as its system VCaP cells. In words: Cellular growth inhibition assay for VCaP cells, CellTiter-Glo. The format is cell-based, human. The following applies: Homo sapiens, VCaP, 72 h, 72 hours treatment, CellTiter-Glo 2.0. An outline of the steps: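 GI50 values come from four-parameter curve fits of luminescence data normalized to a zero baseline. Compound, in medium with 0.5% DMSO, was added one day after plating and left for 72 h before CellTiter-Glo 2.0 addition.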

A further assay deals with T47D cells. Description: Cellular growth inhibition assay for T47D cells, CellTiter-Glo. The assay is classed as cell-based, human. The following applies: Homo sapiens, T47D, 72 h, 72 hours treatment, CellTiter-Glo 2.0 cell viability. Put shortly: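 Luminescence from CellTiter-Glo 2.0 after 72 h of compound exposure gives the viability signal. Cells grew in insulin-supplemented (0.2 units/mL) DMEM with 10% FBS and were treated one day after seeding at 0.5% DMSO. GI50 values come from four-parameter nonlinear regression.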

Structures are written as SMILES.

For the compound `Cc1sc2c(c1C)C(c1ccc(Cl)cc1)=N[C@@H](CC(=O)NCCOCCOCCOC1CCCN(c3ncc(C(=O)N[C@H]4C(C)(C)[C@H](Oc5ccc(C#N)c(Cl)c5)C4(C)C)cn3)C1)c1nnc(C)n1-2` (some centres unmarked) [Compound I-15], the values for the Kd at androgen receptor and on BRD4-BD1 were under 50 nM and 500 to 2500 nM, respectively. Besides, the GI50 in assay [1] is 1500 to 3000 nM; in assay [2] it was under 500 nM.
`Cc1sc2c(c1C)C(c1ccc(Cl)cc1)=N[C@@H](CC(=O)NCCOCCOCCOC1CCN(c3ncc(C(=O)N[C@H]4C(C)(C)[C@H](Oc5ccc(C#N)c(Cl)c5)C4(C)C)cn3)C1)c1nnc(C)n1-2` (some centres unmarked) [Compound I-16]: the Kd was 500 to 2500 nM on BRD4-BD1 and under 50 nM at BRD4-BD2. Besides, the GI50 was 1500 to 3000 nM in assay [1] and under 500 nM in assay [2].
Consider `Cc1sc2c(c1C)C(c1ccc(C3CCC4(CC3)CCN(c3ncc(C(=O)N[C@H]5C(C)(C)[C@H](Oc6ccc(C#N)c(Cl)c6)C5(C)C)cn3)C4)cc1)=N[C@@H](Cc1ncco1)c1nnc(C)n1-2` [Compound I-671, N-[3-(3-chloro-4-cyano-phenoxy)-2,2,4,4-tetramethyl-cyclobutyl]-2-[8-[4-[(9S)-4,5,13-trimethyl-9-(oxazol-2-ylmethyl)-3-thia-1,8,11,12-tetrazatricyclo[8.3.0.02,6]trideca-2(6),4,7,10,12-pentaen-7-yl]phenyl]-2-azaspiro[4.5]decan-2-yl]pyrimidine-5-carboxamide], for which the GI50 (in assay [1]; in the assay with VCaP cells; with T47D cells; in assay [2]) was under 500 nM in each case.
Turning to `Cc1sc2c(c1C)C(c1ccc(OC3CC4(C3)CC3(CCN(c5ncc(C(=O)N[C@H]6C(C)(C)[C@H](Oc7ccc(C#N)c(Cl)c7)C6(C)C)c(Cl)n5)CC3)C4)cc1)=N[C@@H](Cc1ncco1)c1nnc(C)n1-2` [Compound I-672, 4-chloro-N-((1r,3r)-3-(3-chloro-4-cyanophenoxy)-2,2,4,4-tetramethylcyclobutyl)-2-(2-(4-((S)-2,3,9-trimethyl-6-(oxazol-2-ylmethyl)-6H-thieno[3,2-f][1,2,4]triazolo[4,3-a][1,4]diazepin-4-yl)phenoxy)-9-azadispiro[3.1.56.14]dodecan-9-yl)pyrimidine-5-carboxamide], the GI50 is over 3000 nM in assay [1], under 500 nM in the assay on VCaP cells, under 500 nM in the assay with T47D cells and over 3000 nM in assay [2].
On to `Cc1nc(N2CCC3(CC2)CC2(CC(Oc4ccc(C5=N[C@@H](Cc6ncco6)c6nnc(C)n6-c6sc(C)c(C)c65)cc4)C2)C3)ncc1C(=O)N[C@H]1C(C)(C)[C@H](Oc2ccc(C#N)c(Cl)c2)C1(C)C` [Compound I-673, N-[3-(3-chloro-4-cyano-phenoxy)-2,2,4,4-tetramethyl-cyclobutyl]-4-methyl-2-[2-[4-[(9S)-4,5,13-trimethyl-9-(oxazol-2-ylmethyl)-3-thia-1,8,11,12-tetrazatricyclo[8.3.0.02,6]trideca-2(6),4,7,10,12-pentaen-7-yl]phenoxy]-9-azadispiro [3.1.56.14]dodecan-9-yl]pyrimidine-5-carboxamide], for which the GI50 is over 3000 nM in assay [1], under 500 nM with VCaP cells, under 500 nM in the assay with T47D cells and under 500 nM in assay [2].
